SMILES strings stand for the structures.

A short description of the series: gradient 5% acetonitrile 3 min, to 50% in 2 min, to 85% in 15 min, held 3 min, 100 µL/min. As to conditions: column: Zorbax Extend-C18 2.1 x 50 mm; eluents: water / acetonitrile, 0.1% formic acid. The gist of the method:
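Over 3 months, pure standards in mixtures of ~100 molecules were run by HPLC coupled to a quadrupole time-of-flight mass spectrometer in positive and negative ionization mode. The column was a Zorbax Extend-C18 (2.1 × 50 mm, 1.8 μm) at 100 μL/min, eluted with water and acetonitrile each holding 0.1% formic acid, with 40 μL dead and 900 μL dwell volumes. Retention time was determined from adduct peaks chosen by software and checked manually.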
Regarding `Cc1ccccc1Nc1c(-c2ccc(N3CCOCC3)cc2)nc2ccc(Br)cn12`, the RP-LC retention time stood at 795 s.

Compound `O=C(c1nnn(-c2ccc(Cl)cc2)c1-c1cccnc1)N1CCSCC1` returned an RP-LC retention time of 780 s.

Regarding `CCCn1cc(-c2ccncc2)cc1C(=O)NCc1ccc(F)cc1`, the RP-LC retention time was 680 s.

In turn, `Cc1ccc(CNC(=O)c2nc(-c3ccnc(N4CCCC4)c3)no2)o1` registered an RP-LC retention time of 663 s.

`COc1ccc(-c2ccc(=O)n(CCNC(=O)NC3CCCCC3)n2)cc1` yielded an RP-LC retention time of 681 s.

`Cc1ccc(CNC(=O)Cn2c(=O)c(=O)n(C)c3ncccc32)o1` came in with an RP-LC retention time of 656 s.

Consider `Cc1ccccc1Nc1c(-c2cccc(Cl)c2)nc2c(C)cccn12`, for which the RP-LC retention time was determined as 802 s.

As to `COCCCNC(=O)C1CCCN(c2ccc(=O)n(-c3ccc(OC)cc3)n2)C1` (stereo not drawn), the RP-LC retention time stood at 658 s.

The compound `CCN1CCC2(CC1)OC(=O)C(C)=C2C(=O)NCCCN1CCN(c2cc(C)ccc2C)CC1` had an RP-LC retention time of 586 s.

`Cc1noc(-c2ccc(NC(=O)CSc3nnnn3C)cc2)n1` showed an RP-LC retention time of 665 s.

In turn, `O=C(C1CCCC1)N1CC(c2nc(-c3ccc(F)cc3)no2)C2(CCOCC2)C1` (stereo not drawn) had an RP-LC retention time of 958 s.

`O=C(Cn1cc(-c2nc(-c3ccc(Cl)cc3)no2)ccc1=O)NC1CCCCC1` gave an RP-LC retention time of 1030 s.

`CCOc1ccc(-c2noc(N3CCC(C(=O)N4CCCCC4)CC3)n2)cc1OC` showed an RP-LC retention time of 889 s.

For the compound `Cc1nnc(C2CCCCCN2C(=O)CCc2c(C)noc2C)o1` (stereo not drawn), the RP-LC retention time came to 674 s.

As to `COc1ccc2c(c1)c(N1CCCC1=O)c(C(=O)NCCCN1CC(C)CC(C)C1)n2C` (stereo not drawn), the RP-LC retention time came to 647 s.

As to `O=C(Nc1nnc(C2CCCCC2)s1)C1CCN(C(=O)c2ccccc2)CC1`, the RP-LC retention time is 789 s.

In the case of `CCNc1nc(C)cc(N2CCN(S(=O)(=O)c3ccc(Cl)c(Cl)c3)CC2)n1`, the RP-LC retention time is 770 s.

Take `CCN(CC)CCNC(=O)c1ccc2nc(C(C)C)oc2c1`: the RP-LC retention time stood at 605 s.

For the compound `Cc1ccc(NC(=O)Cn2nc(N3CCC(C)CC3)c3ccccc3c2=O)cc1`, the RP-LC retention time was found to be 1140 s.

Take `Cc1cc(F)ccc1NC(=O)C1CCN(c2cnc3ccccc3n2)CC1`: the RP-LC retention time amounted to 780 s.

Compound `CCN(c1nc(N)c(C(=O)N=C(N)N)nc1Cl)C(C)C` displayed an RP-LC retention time of 779 s.

Turning to `O=S(=O)(c1ccc2c(c1)CCCC2)N1CCCC1c1nc(-c2ccc(Cl)cc2)no1` (stereo not drawn), the RP-LC retention time is 1370 s.

`CCc1nc2cc(N3CCCC(C(=O)NCC4CCCO4)C3)cnc2nc1CC` (stereo not drawn) came in with an RP-LC retention time of 694 s.

As to `CN(Cc1cccs1)C(=O)Nc1ccccc1`, the RP-LC retention time was determined as 833 s.

In turn, `COCC1CN(Cc2cccc3[nH]ccc23)CC12CCNCC2` (stereo not drawn) displayed an RP-LC retention time of 510 s.

`COC1OC2COC(c3ccccc3)OC2C(=O)C1NC(=O)c1ccccc1` (stereo not drawn): the RP-LC retention time turned out to be 1050 s.

In turn, `O=C(c1nc(-c2ccnc(N3CCCCC3)c2)no1)N1CCN(C2CCCCC2)CC1` displayed an RP-LC retention time of 609 s.

`COc1ccc(-n2c(=O)c(C(=O)NCc3cc(F)cc(F)c3)c(O)c3cccnc32)cc1` came in with an RP-LC retention time of 1170 s.

In turn, `CCOC(=O)c1c(S(=O)(=O)N2CCC(C(=O)NCc3ccccc3)CC2)c(C)n(C)c1C` had an RP-LC retention time of 795 s.

`COCc1cc(=O)n(CC(=O)Nc2cccc(SC)c2)c(N2CCOCC2)n1` had an RP-LC retention time of 857 s.

`COc1ccc(CNC(=O)C2=Cc3cccc(OC)c3OC2)cc1OC` displayed an RP-LC retention time of 788 s.

Compound `COc1ccc(-c2nc3cnccn3c2Nc2ccc(C(=O)N3CCOCC3)cc2)cc1OC` had an RP-LC retention time of 609 s.

Turning to `NC(=O)C1CCCN(C(=O)c2ccc(F)cc2F)C1` (stereo not drawn), the RP-LC retention time came out at 599 s.

The record behind these values is the METLIN SMRT retention time set (Domingo-Almenara et al. 2019).
